Measured values published in the supplement of paper PMC12076712.

Assays:
Assay in all cases: pIC50, kinobeads binding competition
[1] = molecular target: T1, JAK3 (UniProt P52333)
T1 sequence (whole entry): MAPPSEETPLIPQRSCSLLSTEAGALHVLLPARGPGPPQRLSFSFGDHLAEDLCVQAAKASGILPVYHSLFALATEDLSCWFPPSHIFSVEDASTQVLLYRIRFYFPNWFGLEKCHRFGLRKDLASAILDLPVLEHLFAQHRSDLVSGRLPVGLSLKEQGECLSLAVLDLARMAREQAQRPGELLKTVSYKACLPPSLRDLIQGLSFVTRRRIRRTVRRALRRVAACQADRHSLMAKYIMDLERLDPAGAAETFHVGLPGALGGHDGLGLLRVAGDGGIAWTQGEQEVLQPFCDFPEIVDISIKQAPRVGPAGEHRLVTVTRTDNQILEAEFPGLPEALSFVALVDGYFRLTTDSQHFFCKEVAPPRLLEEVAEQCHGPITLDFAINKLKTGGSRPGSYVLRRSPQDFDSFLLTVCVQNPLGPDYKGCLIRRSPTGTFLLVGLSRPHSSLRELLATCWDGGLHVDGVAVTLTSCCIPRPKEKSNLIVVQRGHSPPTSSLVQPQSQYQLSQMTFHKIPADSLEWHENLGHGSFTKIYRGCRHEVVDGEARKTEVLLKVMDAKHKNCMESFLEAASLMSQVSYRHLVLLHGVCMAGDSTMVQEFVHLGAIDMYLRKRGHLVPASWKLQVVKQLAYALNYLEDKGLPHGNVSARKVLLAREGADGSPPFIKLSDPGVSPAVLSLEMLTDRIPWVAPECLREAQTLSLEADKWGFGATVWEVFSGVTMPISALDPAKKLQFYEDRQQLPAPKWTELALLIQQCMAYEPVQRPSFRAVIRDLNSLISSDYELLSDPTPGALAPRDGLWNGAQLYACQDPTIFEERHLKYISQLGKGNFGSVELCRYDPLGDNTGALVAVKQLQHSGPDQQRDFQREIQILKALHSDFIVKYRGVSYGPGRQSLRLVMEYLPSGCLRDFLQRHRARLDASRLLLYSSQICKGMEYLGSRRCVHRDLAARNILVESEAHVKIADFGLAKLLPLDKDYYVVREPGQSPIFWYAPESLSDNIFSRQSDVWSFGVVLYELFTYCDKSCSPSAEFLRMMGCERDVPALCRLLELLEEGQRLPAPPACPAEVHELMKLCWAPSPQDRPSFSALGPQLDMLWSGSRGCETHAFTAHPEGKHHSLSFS
How it was run: (§1)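 Nine compound concentrations were tested, starting at 30 μM in 1:4 steps on live Jurkat cells (60 min, 37 °C, then lysis) or in 1:5 steps on Jurkat lysate or a 1:1:1:1 HEK293/K-562/HepG2/placenta lysate mix (60 min, 4 °C). Kinobeads-bound proteins were digested and quantified with TMT10 LC-MS/MS. pIC50 values are from logistic dose-response fits in the R drc package of fold changes relative to vehicle, from biological duplicates.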

[2] = molecular target: UniProt Q8NI60
Chain of UniProt Q8NI60 (Q8NI60 whole entry, looked up): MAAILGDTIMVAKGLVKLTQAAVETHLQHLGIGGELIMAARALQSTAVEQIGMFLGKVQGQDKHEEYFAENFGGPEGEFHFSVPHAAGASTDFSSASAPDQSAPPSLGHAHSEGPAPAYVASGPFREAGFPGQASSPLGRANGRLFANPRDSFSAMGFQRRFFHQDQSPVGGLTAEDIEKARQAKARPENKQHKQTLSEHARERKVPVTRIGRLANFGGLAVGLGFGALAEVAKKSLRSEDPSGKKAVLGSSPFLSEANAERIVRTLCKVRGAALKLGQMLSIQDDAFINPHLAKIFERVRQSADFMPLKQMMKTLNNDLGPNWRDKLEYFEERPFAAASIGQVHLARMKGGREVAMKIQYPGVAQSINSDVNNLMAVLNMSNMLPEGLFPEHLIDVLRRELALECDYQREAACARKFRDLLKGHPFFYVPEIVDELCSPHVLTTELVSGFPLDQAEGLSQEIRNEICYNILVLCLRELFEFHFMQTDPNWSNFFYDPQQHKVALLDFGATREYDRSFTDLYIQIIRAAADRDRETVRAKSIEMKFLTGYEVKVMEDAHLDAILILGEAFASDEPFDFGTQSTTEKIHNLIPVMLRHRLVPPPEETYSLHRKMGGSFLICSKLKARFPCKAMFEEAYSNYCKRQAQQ
How it was run: as §1

[3] = molecular target: MYLK (UniProt Q15746); conditions: cell material: Lysate mix
Chain of MYLK (Q15746 whole entry): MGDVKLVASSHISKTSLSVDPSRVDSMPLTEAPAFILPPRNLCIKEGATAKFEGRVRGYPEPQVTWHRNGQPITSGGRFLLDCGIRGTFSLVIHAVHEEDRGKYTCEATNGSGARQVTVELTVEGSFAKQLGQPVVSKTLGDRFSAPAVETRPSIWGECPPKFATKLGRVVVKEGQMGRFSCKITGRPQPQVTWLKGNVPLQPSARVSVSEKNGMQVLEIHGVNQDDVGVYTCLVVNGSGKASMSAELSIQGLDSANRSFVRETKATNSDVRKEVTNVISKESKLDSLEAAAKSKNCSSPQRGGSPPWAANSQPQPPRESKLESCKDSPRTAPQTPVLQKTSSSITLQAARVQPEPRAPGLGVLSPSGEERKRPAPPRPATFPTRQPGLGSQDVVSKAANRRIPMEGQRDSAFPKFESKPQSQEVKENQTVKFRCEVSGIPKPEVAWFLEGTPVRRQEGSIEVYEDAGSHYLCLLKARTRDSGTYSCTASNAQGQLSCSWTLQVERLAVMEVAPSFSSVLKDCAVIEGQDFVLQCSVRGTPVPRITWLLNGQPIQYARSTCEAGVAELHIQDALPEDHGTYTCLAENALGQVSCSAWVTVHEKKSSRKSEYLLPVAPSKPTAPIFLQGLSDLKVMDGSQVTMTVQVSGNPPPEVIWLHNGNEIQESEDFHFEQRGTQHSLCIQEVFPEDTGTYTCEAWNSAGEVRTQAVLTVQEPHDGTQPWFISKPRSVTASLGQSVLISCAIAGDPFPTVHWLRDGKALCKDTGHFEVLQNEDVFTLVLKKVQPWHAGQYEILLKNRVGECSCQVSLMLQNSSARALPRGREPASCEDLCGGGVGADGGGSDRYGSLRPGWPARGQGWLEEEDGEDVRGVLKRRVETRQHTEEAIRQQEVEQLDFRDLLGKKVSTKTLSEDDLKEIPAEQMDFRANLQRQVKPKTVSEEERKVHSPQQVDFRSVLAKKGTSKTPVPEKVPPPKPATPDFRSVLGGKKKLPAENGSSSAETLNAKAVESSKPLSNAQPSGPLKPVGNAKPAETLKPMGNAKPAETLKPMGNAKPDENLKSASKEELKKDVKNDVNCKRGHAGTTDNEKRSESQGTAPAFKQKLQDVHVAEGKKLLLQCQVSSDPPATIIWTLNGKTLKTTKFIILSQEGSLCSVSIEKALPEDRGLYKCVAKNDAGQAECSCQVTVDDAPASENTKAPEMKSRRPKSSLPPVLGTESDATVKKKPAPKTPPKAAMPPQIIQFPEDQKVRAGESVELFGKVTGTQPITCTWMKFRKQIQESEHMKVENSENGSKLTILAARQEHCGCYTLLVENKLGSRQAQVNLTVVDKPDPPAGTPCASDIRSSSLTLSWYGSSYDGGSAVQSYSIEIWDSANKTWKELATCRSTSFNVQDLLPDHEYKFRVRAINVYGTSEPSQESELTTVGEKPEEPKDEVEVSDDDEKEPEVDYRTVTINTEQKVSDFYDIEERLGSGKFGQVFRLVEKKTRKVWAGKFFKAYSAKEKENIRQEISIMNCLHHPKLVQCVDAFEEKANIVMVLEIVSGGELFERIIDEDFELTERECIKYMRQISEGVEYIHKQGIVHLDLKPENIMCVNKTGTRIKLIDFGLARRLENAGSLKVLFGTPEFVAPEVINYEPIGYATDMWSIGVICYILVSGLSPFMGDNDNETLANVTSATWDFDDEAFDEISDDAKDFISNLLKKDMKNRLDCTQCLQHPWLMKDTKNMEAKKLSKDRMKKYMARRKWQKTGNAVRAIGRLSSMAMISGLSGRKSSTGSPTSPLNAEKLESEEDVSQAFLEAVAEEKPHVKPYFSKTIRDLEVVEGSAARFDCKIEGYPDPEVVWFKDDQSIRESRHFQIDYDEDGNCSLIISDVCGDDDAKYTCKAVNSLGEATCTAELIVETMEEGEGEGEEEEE
How it was run: as §1

[4] = molecular target: EPHA4 (UniProt P54764); conditions: cell material: Lysate mix
Chain of EPHA4 (P54764 whole entry): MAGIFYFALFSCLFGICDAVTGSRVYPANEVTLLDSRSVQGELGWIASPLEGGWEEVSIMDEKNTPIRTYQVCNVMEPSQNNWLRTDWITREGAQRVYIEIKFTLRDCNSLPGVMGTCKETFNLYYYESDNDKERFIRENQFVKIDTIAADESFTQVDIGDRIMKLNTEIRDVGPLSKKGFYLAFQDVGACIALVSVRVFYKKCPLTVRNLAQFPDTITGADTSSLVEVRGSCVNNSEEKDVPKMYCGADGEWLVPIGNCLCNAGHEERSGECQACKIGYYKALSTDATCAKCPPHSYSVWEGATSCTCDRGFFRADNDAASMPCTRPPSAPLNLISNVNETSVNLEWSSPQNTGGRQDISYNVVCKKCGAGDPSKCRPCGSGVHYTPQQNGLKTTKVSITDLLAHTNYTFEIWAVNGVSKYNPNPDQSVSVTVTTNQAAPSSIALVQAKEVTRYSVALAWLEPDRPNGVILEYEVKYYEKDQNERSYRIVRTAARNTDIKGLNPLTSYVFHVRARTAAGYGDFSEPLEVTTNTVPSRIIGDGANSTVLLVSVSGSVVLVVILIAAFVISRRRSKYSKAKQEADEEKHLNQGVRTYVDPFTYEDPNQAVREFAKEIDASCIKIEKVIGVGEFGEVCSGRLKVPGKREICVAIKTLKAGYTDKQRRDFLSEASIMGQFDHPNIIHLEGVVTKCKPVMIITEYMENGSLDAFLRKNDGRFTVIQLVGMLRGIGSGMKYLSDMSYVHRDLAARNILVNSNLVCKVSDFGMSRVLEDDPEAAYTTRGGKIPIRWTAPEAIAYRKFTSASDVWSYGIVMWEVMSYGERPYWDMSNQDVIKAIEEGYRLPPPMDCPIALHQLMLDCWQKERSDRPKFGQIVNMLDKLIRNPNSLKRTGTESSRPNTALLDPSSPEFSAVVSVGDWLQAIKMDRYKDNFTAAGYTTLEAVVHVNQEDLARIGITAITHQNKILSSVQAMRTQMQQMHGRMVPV
How it was run: as §1

[5] = molecular target: BRAF (UniProt P15056)
Chain of BRAF (P15056 whole entry): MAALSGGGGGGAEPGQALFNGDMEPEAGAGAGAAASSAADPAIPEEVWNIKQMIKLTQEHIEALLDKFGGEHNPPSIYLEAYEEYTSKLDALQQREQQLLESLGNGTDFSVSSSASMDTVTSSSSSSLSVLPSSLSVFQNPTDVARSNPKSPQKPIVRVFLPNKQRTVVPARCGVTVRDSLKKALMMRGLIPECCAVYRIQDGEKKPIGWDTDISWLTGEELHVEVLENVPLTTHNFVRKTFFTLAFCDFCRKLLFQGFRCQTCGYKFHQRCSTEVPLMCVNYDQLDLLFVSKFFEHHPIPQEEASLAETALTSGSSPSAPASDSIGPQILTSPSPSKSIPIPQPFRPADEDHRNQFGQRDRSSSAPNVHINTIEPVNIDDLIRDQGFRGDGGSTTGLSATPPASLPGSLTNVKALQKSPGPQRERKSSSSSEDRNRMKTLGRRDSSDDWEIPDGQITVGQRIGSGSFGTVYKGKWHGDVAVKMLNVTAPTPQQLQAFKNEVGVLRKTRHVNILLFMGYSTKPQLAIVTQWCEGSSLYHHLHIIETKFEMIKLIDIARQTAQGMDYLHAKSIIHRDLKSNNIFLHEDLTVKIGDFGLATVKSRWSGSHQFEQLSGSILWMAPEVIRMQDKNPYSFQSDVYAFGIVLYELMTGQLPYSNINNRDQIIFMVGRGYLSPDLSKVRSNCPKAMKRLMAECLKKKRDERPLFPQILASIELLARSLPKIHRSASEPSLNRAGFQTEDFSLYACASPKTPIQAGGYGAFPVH
How it was run: as §1

[6] = molecular target: T2, NEK1 (UniProt Q96PY6)
T2 sequence (whole entry): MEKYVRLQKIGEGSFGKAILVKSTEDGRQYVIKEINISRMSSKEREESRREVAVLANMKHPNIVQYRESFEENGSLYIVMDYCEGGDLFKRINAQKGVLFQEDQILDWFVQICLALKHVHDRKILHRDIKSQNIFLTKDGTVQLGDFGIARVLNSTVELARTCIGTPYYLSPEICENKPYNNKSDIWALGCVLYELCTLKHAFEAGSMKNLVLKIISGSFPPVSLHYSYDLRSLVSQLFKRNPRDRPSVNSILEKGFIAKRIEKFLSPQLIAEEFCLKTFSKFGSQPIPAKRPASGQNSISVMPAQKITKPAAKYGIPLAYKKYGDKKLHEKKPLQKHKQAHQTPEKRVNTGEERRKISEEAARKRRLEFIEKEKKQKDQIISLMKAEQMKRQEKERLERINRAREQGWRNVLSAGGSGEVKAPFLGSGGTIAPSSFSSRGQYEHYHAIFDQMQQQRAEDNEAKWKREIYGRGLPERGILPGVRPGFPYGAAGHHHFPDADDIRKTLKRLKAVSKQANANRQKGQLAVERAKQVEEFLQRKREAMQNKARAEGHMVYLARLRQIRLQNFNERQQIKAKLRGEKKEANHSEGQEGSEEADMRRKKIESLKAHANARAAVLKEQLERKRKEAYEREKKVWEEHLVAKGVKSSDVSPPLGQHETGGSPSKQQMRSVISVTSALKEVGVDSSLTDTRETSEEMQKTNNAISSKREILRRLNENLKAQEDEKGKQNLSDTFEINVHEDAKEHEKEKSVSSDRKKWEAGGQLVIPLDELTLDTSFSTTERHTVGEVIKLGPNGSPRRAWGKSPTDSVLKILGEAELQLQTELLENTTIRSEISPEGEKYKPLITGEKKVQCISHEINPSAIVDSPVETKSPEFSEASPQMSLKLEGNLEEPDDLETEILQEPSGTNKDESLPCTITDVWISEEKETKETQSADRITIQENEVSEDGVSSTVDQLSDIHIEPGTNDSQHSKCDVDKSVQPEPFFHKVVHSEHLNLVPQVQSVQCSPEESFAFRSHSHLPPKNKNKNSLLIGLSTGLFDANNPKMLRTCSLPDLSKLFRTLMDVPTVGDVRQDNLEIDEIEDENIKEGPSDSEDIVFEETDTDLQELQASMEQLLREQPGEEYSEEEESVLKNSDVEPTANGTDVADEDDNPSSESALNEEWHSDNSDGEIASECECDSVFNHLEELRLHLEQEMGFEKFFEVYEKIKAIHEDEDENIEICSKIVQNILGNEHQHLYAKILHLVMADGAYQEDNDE
How it was run: as §1

[7] = molecular target: FGFR2 (UniProt P21802); conditions: cell material: Lysate mix
How it was run: as §1

[8] = molecular target: MARK1 (UniProt Q9P0L2); conditions: cell material: Lysate mix
Chain of MARK1 (Q9P0L2 whole entry, looked up): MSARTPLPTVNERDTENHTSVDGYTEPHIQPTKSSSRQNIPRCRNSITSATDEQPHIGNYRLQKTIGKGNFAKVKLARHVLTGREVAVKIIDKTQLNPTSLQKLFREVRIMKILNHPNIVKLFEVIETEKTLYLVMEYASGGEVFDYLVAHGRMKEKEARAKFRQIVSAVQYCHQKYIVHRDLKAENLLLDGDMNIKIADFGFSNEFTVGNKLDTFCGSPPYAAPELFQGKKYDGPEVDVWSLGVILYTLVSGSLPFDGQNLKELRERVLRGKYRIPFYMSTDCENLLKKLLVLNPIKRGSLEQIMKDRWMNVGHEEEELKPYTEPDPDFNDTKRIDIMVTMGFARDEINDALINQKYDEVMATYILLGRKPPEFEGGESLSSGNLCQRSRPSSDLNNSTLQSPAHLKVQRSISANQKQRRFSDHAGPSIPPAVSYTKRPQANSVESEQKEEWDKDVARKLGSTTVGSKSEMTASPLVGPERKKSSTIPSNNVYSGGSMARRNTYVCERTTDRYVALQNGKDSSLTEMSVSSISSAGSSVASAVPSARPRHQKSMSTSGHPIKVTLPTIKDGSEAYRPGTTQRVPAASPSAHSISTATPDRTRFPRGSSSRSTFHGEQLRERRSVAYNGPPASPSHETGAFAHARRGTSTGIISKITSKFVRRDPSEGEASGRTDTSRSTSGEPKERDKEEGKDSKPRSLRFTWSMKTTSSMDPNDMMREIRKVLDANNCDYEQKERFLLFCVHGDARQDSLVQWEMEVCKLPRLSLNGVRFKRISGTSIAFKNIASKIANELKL
How it was run: as §1

| Structure (SMILES) | pIC50 ([1]; cell material: Jurkat cells) | pIC50 ([1]; cell material: Jurkat lysate) | pIC50 ([1]; cell material: Lysate mix) | pIC50 ([2]; cell material: Jurkat cells) | pIC50 ([2]; cell material: Jurkat lysate) | pIC50 ([2]; cell material: Lysate mix) | pIC50 [3] | pIC50 [4] | pIC50 ([5]; cell material: Jurkat cells) | pIC50 ([5]; cell material: Jurkat lysate) | pIC50 ([5]; cell material: Lysate mix) | pIC50 ([6]; cell material: Jurkat cells) | pIC50 ([6]; cell material: Jurkat lysate) | pIC50 [7] | pIC50 [8] | pIC50 ([6]; cell material: Lysate mix) |
| --- | --- | --- | --- | --- | --- | --- | --- | --- | --- | --- | --- | --- | --- | --- | --- | --- |
| C#CCNC(=O)c1cc(Nc2cc(C3CC3)[nH]n2)nc(N2CCN(Cc3ccc(S(=O)(=O)F)cc3)CC2)n1 | 5.94 | 5.42 | 6.08 | < 4.52 | < 4.52 | < 4.52 | < 4.52 | < 4.52 | 5.36 | < 4.52 | < 4.52 | 5.94 | < 4.52 | 4.94 | < 4.52 | – |
| C#CCNC(=O)c1cc(Nc2cc(C)[nH]n2)nc(N2CCN(Cc3ccc(S(=O)(=O)F)cc3)CC2)n1 | – | – | 5.7 | – | – | < 4.52 | < 4.52 | < 4.52 | – | – | < 4.52 | – | – | < 4.52 | < 4.52 | < 4.52 |
| Cc1cc(Nc2cc(C(=O)NCCNC(=O)OC3CC/C=C/CCC3)nc(N3CCN(Cc4ccc(S(=O)(=O)F)cc4)CC3)n2)n[nH]1 (stereo not drawn) | – | – | < 4.52 | – | – | < 4.52 | < 4.52 | < 4.52 | – | – | < 4.52 | – | – | < 4.52 | < 4.52 | < 4.52 |
| O=C(NCCNC(=O)c1cc(Nc2cc(C3CC3)[nH]n2)nc(N2CCN(Cc3ccc(S(=O)(=O)F)cc3)CC2)n1)OC1CC/C=C/CCC1 (stereo not drawn) | 5.39 | < 4.52 | < 4.52 | < 4.52 | < 4.52 | < 4.52 | < 4.52 | < 4.52 | < 4.52 | < 4.52 | < 4.52 | 5.43 | < 4.52 | < 4.52 | < 4.52 | < 4.52 |
| CCNC(=O)c1cc(Nc2cc(C)[nH]n2)nc(N2CCN(Cc3ccc(S(=O)(=O)F)cc3)CC2)n1 | – | – | 5.89 | – | – | < 4.52 | < 4.52 | < 4.52 | – | – | < 4.52 | – | – | < 4.52 | < 4.52 | < 4.52 |
| CCNC(=O)c1cc(Nc2cc(C3CC3)[nH]n2)nc(N2CCN(Cc3ccc(S(=O)(=O)F)cc3)CC2)n1 | – | – | 5.97 | – | – | < 4.52 | < 4.52 | < 4.52 | – | – | < 4.52 | – | – | 5.24 | < 4.52 | 4.86 |
